Laboratory results reported in patent publication US20040082623A1, “Fmoc-l-leucine and derivatives thereof as ppar-gamma agonists” (priority 2003, published 2004).

What was measured:
hPPARγ LBD = molecular target: T1, hPPARγ LBD (Homo sapiens, UniProt P37231); test: ESI-mass spectrometry of ligand binding to PPARγ LBD
T1 construct: Human PPARγ (aa. 203 to 477 of PPARγ) was subcloned into the pET15b; His-tag (N); made in house
T1 sequence (P37231 203-477 isoform P37231-2): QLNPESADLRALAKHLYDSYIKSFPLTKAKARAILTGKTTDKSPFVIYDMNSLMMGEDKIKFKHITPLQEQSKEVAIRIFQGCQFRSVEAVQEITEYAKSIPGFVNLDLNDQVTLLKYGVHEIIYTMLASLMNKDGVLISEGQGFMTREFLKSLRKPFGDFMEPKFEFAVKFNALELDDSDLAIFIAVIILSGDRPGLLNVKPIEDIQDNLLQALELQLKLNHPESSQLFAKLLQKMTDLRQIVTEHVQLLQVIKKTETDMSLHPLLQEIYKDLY
Text: FIG. 5: Two molecules of F-L-Leu bind to a single PPARγ molecule. ESI-mass spectrometry analysis.
The p300Nt-GST, fusion protein was generated by cloning the N-terminal part of the p300 protein (a.a. 2 to 516) downstream of the glutathione-S-transferase (GST) protein in the pGex-T1 vector (Pharmacia, Orsay, France). The fusion proteins were then expressed in Escherichia coli and purified on a glutathione affinity matrix (Pharmacia). Human PPARγ (aa. 203 to 477 of PPARγ) was subcloned into the pET15b (Novagen, Madison, Wis.) expression vector. The his-tagPPARγ2DE203-477 proteins were produced as follow. The protein was purified using a metal chelate affinity column with an affinity column Co^2+ coupled agarose (High Trap chelatin, Pharmacia). The protein was eluted with 20 mM Tris-HCl, […], 130 mM imidazole and 1-2 propanediol 2.5% (pH 8.5). A second purification step was made by gel filtration (Superdex 200 16/60, Pharmacia). The protein was eluted with 20 mM Tris-HCl, 100 mM NaCl, 5 mM DTT and 1-2 propanediol 2,5% (pH 8.5). […]
Electrospray ionization (ESI) mass spectrometry of hPPARγ LBD (amino acid 203 t ? 477) was used to identify the specific binding of F-L-Leu with PPARγ (FIG. 5). […] The mass of the receptor wa ? determined after incubation by ESI-mass spectrometry.

TNBS-treated Balb/c mice = test: TNBS-induced colitis in Balb/c mice; assay type: in vivo; details: 50 mg/kg/day
Protocol: FIG. 9: F-L-Leu protects against colon inflammation in TNBS-treated Balb/c Mice. A: Ameho histologic scores (left panel) and survival rate (right panel) in TNBS-treated mice injected either with DMSO or F-L-Leu (50 mg/kg/day). B: TNFα and IL-1β mRNA levels in the colon of TNBS-treated mice injected with DMSO or F-L-Leu (50 mg/kg/day). Results are expressed as mean±SEM.
RNA was isolated from 3T3-L1 cells by the acid guanidinium ? thiocyanate/phenol/chloroform method (Chomczynski and Sacchi, 1987). Northern blot analysis of total cellular RNA was performed as described (Auwerx et al., 1989) ? Lipoprotein lipase (LPL), aP2 and 36B4 were used as probes (Graves et al., 1992 ? Laborda, 1991; Lefebvre et al., 1997). For RT-competitive PCR, total RNA (5-10 μg ? was reverse transcribed into complementary DNA (cDNA) (Desreumaux et al., 1999 ? Fajas et al., 1997). The RT reaction mixture was amplified by PCR using sense an ? antisense primers specific for β-actin, TNFα and IL-1β. The samples were subjected t ? 40 PCR cycles, consisting of denaturation for 1 min at 94° C., primer annealing for ? min at 52-58° C., and primer extension for 1.5 min at 72° C. using a Gene Amp PCR ? System 9700 (Perkin-Elner Corporation, Foster City, Calif.). The quantity of mRNA was expressed as the number of TNFα or IL-1β cDNA per β-actin cDNA molecules.
Male Balb/c mice (8 per group) were used for the colitis studies (Jackson laboratories, Bar Harbor, Me.). Colitis was induced by administration of 40 μl of a solution of TNBS (150 mg/kg, Fluka, Saint Quentin Fallavier, France) dissolved in NaCl 0.9% and mixed with an equal volume of ethanol (50% ethanol). This solution was administered intrarectally via a 3.5 F catheter (Ref EO 3416-1, Biotrol, Chelles, France) inserted 4 cm proximal to the anus in anesthesized mice [Xylasine (50 mg/kg of Rompun® 2%, Bayer Pharma, Puteaux, France) and Ketamine (50 mg/kg of Imalgene® 1000, Rhône Mérieux, France)]. Animals were sacrified by cervical dislocation under ether anesthesia two days after TNBS administration. The colon was quickly removed, opened, washed. A 2 cm colonic specimen located precisely 2 cm above the anal canal was dissected systematically in 4 parts. One part was fixed overnight in 4% paraformaldehyde acid at 4° C., dehydrated in alcohol and embedded in paraffin. Sections (5 μm) were then deparaffined with xylene and rehydrated by ethanol treatment. Stained sections with haematoxylin-eosin were examined blindly by a pathologist and scored according to the Ameho criteria (Ameho et al., 1997). The other parts of the colon were used for RNA isolation for the quantification of TNFα and IL1β mRNA expression.

CC(C)CC(NC(=O)OCC1c2ccccc2-c2ccccc21)C(=O)O [F-L-Leu, N-(9-fluroroenylmethyloxycarbonyl)-L-Leucine]
PPARγ species detected (hPPARγ LBD; 1 equivalent of ligand per equivalent of PPARγ: unliganded, 1:1 and 1:2 complexes): three populations of PPARγ
number of ligand molecules bound per PPARγ LBD (hPPARγ LBD; 8 equivalents of ligand per 1 equivalent of PPARγ, only complex detected): 2
Ameho histologic score (TNBS-treated Balb/c mice): reduced significantly
IL-1β mRNA levels in colon (TNBS-treated Balb/c mice): significant decrease
TNFα mRNA levels in colon (TNBS-treated Balb/c mice): significant decrease
survival rate (TNBS-treated Balb/c mice; 4 days, two days after TNBS, control 76%): 100%
